Data reported in patent US20220031708A1, “METHOD FOR TREATING IDIOPATHIC PULMONARY FIBROSIS” (NuMedii, Inc., priority 2019, published 2022).
Where two headings read alike, the source gives them in different places.

What was measured:
[1] = tested on: lung fibroblasts isolated from human IPF donor lungs; assay: Fibroblast-to-myofibroblast transition (FMT), aSMA induction by TGFb, IPF donor fibroblasts; type: cell-based; details: 1.25 ng/mL TGFb; for IC50: Homo sapiens, Fibroblast, 72 h, read-out: LogM IC50 aSMA (converted); for LogM IC50 aSMA: 72 hours
Experimental: (§1) Primary fibroblasts cultured from the lungs of patients with IPF (n=3) or healthy donors (n=3) were exposed to Chk1 inhibitors or control compounds to determine the effect of Chk1 inhibitors on fibroblast differentiation into myofibroblasts (i.e., fibroblast-to-myofibroblast transition [FMT]). […] Chk1 inhibitors were dosed in an 8-point concentration curve 1 hr prior to TGFb treatment. Alpha-SMA and DAPI staining were assessed after 72 hours using high content analysis. The ability of the Chk1 inhibitors to block fibroblast-to-myofibroblast differentiation was determined by quantifying percent inhibition (PIN) of aSMA induction. Cell viability was also measured to determine whether the compounds were cytotoxic.

[2] = tested on: Primary fibroblasts cultured from the lungs of healthy donors; assay: Fibroblast-to-myofibroblast transition (FMT), aSMA induction by TGFb, healthy donor fibroblasts; type: cell-based, human; details: 1.25 ng/mL TGFb; for IC50: Homo sapiens, Fibroblast, 72 h, read-out: LogM IC50 aSMA (converted); for LogM IC50 aSMA: 72 hours
Experimental: as §1

[3] = tested on: mouse model of pulmonary fibrosis; assay: Bleomycin mouse model of pulmonary fibrosis: histopathology and collagen deposition; type: in vivo, C57BL6 mice; details: for Collagen deposition (% pixel count) / Fiber Alignment / Fiber Count / Fiber Density: relative vs vehicle; for disease burden by collagen deposition, fiber count, fiber density and fiber alignment (Sirius red): FIG. 4A, FIG. 4B, Table 8; for histopathology scores (Ashcroft, Masson's Trichrome): PF-477736 10 or 20 mg/kg i.p., nintedanib 100 mg/kg orally, FIG. 3A
Experimental: To induce fibrosis, 6-8 week old C57BL6 mice were dosed with 3 mg/kg bleomycin hydrochloride in a volume of 50 μL per animal via intratracheal (i.t.) administration with a microsprayer. One week following administration of bleomycin, mice were treated with compound or vehicle once daily from day 7 to day 20. PF-477736 was administered at a dose of either 10 mg/kg (“med”) or 20 mg/kg (“high”) i.p. in a vehicle of […] sodium acetate buffer and 4% dextrose, pH 4. Nintedanib was administered orally at 100 mg/kg in a vehicle of 1% methylcellulose. n=10 mice per group.
At the end of the study, lungs were processed using standard histological methods for Masson's Trichrome staining and were assigned Ashcroft scores by a blinded pathologist.
Whole lung imaging was performed using a modified deep learning algorithm to calculate an average histogram (FIG. 3B) and empirical cumulative density function (ECDF, FIG. 3C) for each arm. The X axes represent severity of pathology, and the Y axes represent frequency (histograms) or cumulative frequency (ECDF).
Histological sections were also stained using Sirius red and assessed for collagen deposition (%), collagen fiber count, collagen fiber density, and collagen fiber alignment in a protocol modified from Bredfeldt et al. 2014, “Computational segmentation of collagen fibers from second-harmonic generation images of breast cancer.” Journal of biomedical optics 19.1.

[4] = tested on: Human lung fibroblasts from three donors; assay: FMT assay, Chk1 inhibitor combined with nintedanib or pirfenidone; type: cell-based; details: nintedanib concentration curve, Chk1 inhibitor at pre-determined IC20; FIG. 7
Experimental: Human lung fibroblasts from three donors were seeded in 96-well plates and treated with 1.25 ng/mL TGFb to induce differentiation to a myofibroblast phenotype (characterized by the induction of alpha smooth muscle actin—aSMA). A Chk1 inhibitor PF-477736, or standard-of-care compounds in IPF (nintedanib or pirfenidone) were dosed as indicated in an 8-point concentration curve 1 hr prior to TGFb treatment. Alpha-SMA and DAPI staining were assessed after 72 hours using high content analysis for percent inhibition of aSMA induction and % viable cells. CRC=concentration response curve. The first noted compound was dosed in an 8-point concentration curve, while the second noted compound was dosed at the pre-determined IC20 in this assay.
For each condition, percent inhibition (PIN) of aSMA induction was calculated (circles, and left y-axis), and the percent of viable cells was calculated (triangles, right y-axis).

[5] = tested on: M1 macrophages differentiated from human monocytes; assay: M1 macrophage activation, CD80 flow cytometry after LPS/IFNg; type: cell-based; details: dosed 1 hour before LPS/IFNg, 3 days; FIG. 2A
Experimental: (§2) Human monocytes were isolated from the peripheral blood of IPF patients, exposed to various doses of PF-477736 for 1 hour, and then differentiated into M1 macrophages by exposure to LPS/IFNg, or into M2 macrophages by exposure to IL-4, for 3 days. The cells were analyzed by flow cytometry for CD80 cell surface expression as marker of M1 differentiation, and for CD163 cell surface expression as marker of M2 differentiation. In addition, cell supernatants were tested in a Luminex-based assay for various cytokines and matrix metalloproteinases (MMPs).

[6] = tested on: M2 macrophages differentiated from human monocytes; assay: M2 macrophage activation, CD163 flow cytometry after IL-4; type: cell-based; details: dosed 1 hour before IL-4, 3 days; FIG. 2B
Experimental: as §2

[7] = tested on: macrophages exposed to LPS and IFNg; assay: Luminex-based assay of cytokines and MMPs in macrophage supernatants; type: cell-based, human; details: FIG. 2C
Experimental: as §2

[8] = donor FB0303*, Healthy (aberrant response to nintedanib)
[9] = 100 mg/kg orally once daily day 7 to day 20
[10] = 20 mg/kg i.p. once daily day 7 to day 20
[11] = Multi-dose: mice from both the 10 mg/kg and the 20 mg/kg groups

## NC(=O)Nc1cc(-c2cccc(F)c2)sc1C(=O)N[C@H]1CCCNC1 [AZD-7762]
[1]; donor IPF06, IPF
  IC50: 794 nM
[1]; donor IPF07, IPF
  IC50: 794 nM
[1]; donor IPF08, IPF
  IC50: 501 nM
[2]; donor FB0054, Healthy
  IC50: 1260 nM
[2]; donor FB2382, Healthy
  IC50: 631 nM

## COc1cc2nc(-c3cc(F)ccc3O)nc(N[C@@H]3CNC[C@H]3C(C)(C)O)c2cc1OC [CCT-241533]
[1]; donor IPF06, IPF
  IC50: 631 nM
[1]; donor IPF07, IPF
  IC50: 158 nM
[1]; donor IPF08, IPF
  IC50: 316 nM
[2]; donor FB0054, Healthy
  IC50: 398 nM
[2]; donor FB2382, Healthy
  IC50: 501 nM

## N#Cc1cnc(Nc2cc(NC[C@H]3CNCCO3)c(C(F)(F)F)cn2)cn1 [CCT-245737]
[1]; donor IPF06, IPF
  IC50: 3160 nM
[1]; donor IPF07, IPF
  IC50: 3160 nM
[1]; donor IPF08, IPF
  IC50: 3160 nM
[2]; donor FB0054, Healthy
  IC50: 3160 nM
[2]; [8]
  IC50: 2510 nM
[2]; donor FB2382, Healthy
  IC50: 3160 nM

## N[C@@H]1CCCN(c2c(Br)cnc3[nH]cc(NC(=O)C4CC4)c23)C1 [GDC-0575]
[1]; donor IPF06, IPF
  LogM IC50 aSMA: −5.7 LogM
[1]; donor IPF07, IPF
  LogM IC50 aSMA: −5.7 LogM
[1]; donor IPF08, IPF
  LogM IC50 aSMA: −5.8 LogM
[2]; donor FB0054, Healthy
  LogM IC50 aSMA: −5.9 LogM
[2]; [8]
  LogM IC50 aSMA: −5.8 LogM
[2]; donor FB2382, Healthy
  LogM IC50 aSMA: −5.9 LogM

## Cn1cc(-c2cnn3c(N)c(Br)c([C@@H]4CCCNC4)nc23)cn1 [MK-8776]
[1]; donor IPF06, IPF
  IC50: 2000 nM
[1]; donor IPF07, IPF
  IC50: 2000 nM
[1]; donor IPF08, IPF
  IC50: 1580 nM
[2]; [8]
  IC50: 398 nM
[2]; donor FB2382, Healthy
  IC50: 3160 nM

## COC(=O)c1ccc2c(c1)NC(=O)/C2=C(\Nc1ccc(N(C)C(=O)CN2CCN(C)CC2)cc1)c1ccccc1 [Nintedanib]
[3]; [9]
  Collagen deposition (% pixel count): +0.31 % pixel count
  Fiber Alignment: −0.03
  Fiber Count: +20
  Fiber Density: +0.40
[3]
  disease burden by collagen deposition, fiber count, fiber density and fiber alignment (Sirius red): did not
  histopathology scores (Ashcroft, Masson's Trichrome): improved histopathology scores
[4]
  concentration of nintedanib required for 50% inhibition of fibroblast to myofibroblast differentiation: lower when co-administered with a Chk1 inhibitor

## COc1cccc(OCCCN)c1-c1cc(Nc2cnc(C#N)cn2)n[nH]1 [prexasertib]
[1]; donor IPF06, IPF
  IC50: 1000 nM
[1]; donor IPF07, IPF
  IC50: 1000 nM
[1]; donor IPF08, IPF
  IC50: 631 nM
[2]; donor FB0054, Healthy
  IC50: 631 nM
[2]; donor FB2382, Healthy
  IC50: 794 nM

## PF-477736
[5]
  M1 macrophage activation (CD80 cell surface expression): inhibits M1 macrophage activation in a dose-dependent manner
[6]
  M2 macrophage activation (CD163 cell surface expression): inhibits M2 macrophage activation in a dose-dependent manner
[7]
  levels of representative cytokines and matrix metalloproteinases in supernatants: lower levels of representative cytokines and matrix metalloproteinases
[3]; 10 mg/kg i.p. once daily day 7 to day 20
  Collagen deposition (% pixel count): −1.27 % pixel count
[3]; [10]
  Collagen deposition (% pixel count): −1.64 % pixel count
  Fiber Alignment: 0.08
  Fiber Count: −66.3
  Fiber Density: −0.66
[3]
  disease burden by collagen deposition, fiber count, fiber density and fiber alignment (Sirius red): reduced disease burden by all of these parameters in a dose-dependent manner
  histopathology scores (Ashcroft, Masson's Trichrome): improved histopathology scores
[3]; [11]
  Collagen deposition (% pixel count): −1.63 % pixel count
  Fiber Alignment: 0.08
  Fiber Count: −67.7
  Fiber Density: −0.69
[3]; deep learning algorithm, FIG. 3B, 3C
  pathology severity, whole lung imaging (histogram, ECDF): greater reduction in pathology severity compared to nintedanib
